Our source for the Kb values is patent publication US20190270778A1, “Cyclic Peptides As C5a Receptor Antagonists” (priority 2016, published 2019).

Assay [1] deals with T1, C5a receptor (Homo sapiens, UniProt P21730).
T1 construct: endogenous in cells; host or cells: leukocytes/granulocytes in freshly drawn whole blood of healthy volunteers
T1 sequence (P21730 1-350): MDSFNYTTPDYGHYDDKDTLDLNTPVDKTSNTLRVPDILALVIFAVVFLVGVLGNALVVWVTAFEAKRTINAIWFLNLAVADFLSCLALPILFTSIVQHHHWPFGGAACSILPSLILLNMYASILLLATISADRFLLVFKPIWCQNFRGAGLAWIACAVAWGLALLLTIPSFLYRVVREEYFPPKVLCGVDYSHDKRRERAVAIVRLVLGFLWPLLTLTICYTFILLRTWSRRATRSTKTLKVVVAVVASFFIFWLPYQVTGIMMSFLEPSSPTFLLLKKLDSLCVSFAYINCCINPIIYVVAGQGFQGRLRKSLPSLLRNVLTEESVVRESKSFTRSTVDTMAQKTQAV
The assay can be described thus: HWB oxidative burst assay (C5a-induced, luminol chemiluminescence). Type of assay: cell-based. The method, then:
Inhibition of oxidative burst activity was determined in HWB primed with TNF-α and stimulated with C5a. C5a-induced oxidative burst response (generation of reactive oxygen species) was then detected in the presence of luminol as a chemiluminescent signal.
On the day of assay, HWB was collected from a healthy, non-medicated volunteer into tubes containing 3.8% sodium citrate (final sodium citrate concentration in HWB is 0.38%) and stored in a 37° C. water bath until use (no longer than 60 minutes).
To start the assay, TNF-α was added to HWB to a final concentration of 1.0 nM and 68 μL of this HWB/TNF-α mix was transferred to each well of a 384-well white Optiplate (assay plate). 4.0 μL of various concentrations of test agent were then added to the assay plate and mixed twice gently by aspirating up and down. The assay plate was then placed on a thermoshaker (JITTERBUG-4) and incubated at 37° C. (without shaking). After 60 minutes, C5a (Complement Technology) prepared in luminol (Sigma) was added to the assay plate and mixed twice gently by aspirating up and down. The plate was then placed in a ViewLux 1430 Microplate Imager (Perkin Elmer). After 5 minutes, oxidative burst activity was determined with the ViewLux by measuring luminol-enhanced whole blood chemiluminescence. Final assay conditions were 1.5 mM HEPES pH 7.5, 0.015% BSA, 15% HBSS, 0.85 ng/mL TNFα, 1.0 mM Luminol, C5a 20 nM, 76.5% HWB, 0.15% DMSO and various concentrations of test agent.
The percent (%) effect at each concentration of test agent was then calculated based on and relative to the amount of signal that was produced by positive (i.e. full inhibition of C5a induced oxidative burst) and negative (i.e. completely uninhibited C5a induced oxidative burst) control wells contained within each assay plate. The concentration and % effect values for test agents were plotted and the concentration of test agent required for 50% effect (IC50) was determined with a four-parameter logistic dose response equation (BioBook; IDBS). Kb (nM) was then calculated (BioBook; IDBS) using the equation described by Leff and Dougal (TIPS 1993 14:110-112).

Assay [2] addresses T1, C5a receptor. Nature of the assay: HWB CD11b expression assay (C5a-challenged granulocytes, flow cytometry). Type of assay: cell-based. The method, then:
HWB was collected from healthy, non-medicated volunteers into BD Vacutainer® blood collection tubes with K2EDTA as an anticoagulant. HWB was aliquoted (85 μL/well) in 96-well, deep-well, V-bottom plates and incubated at 37° C. for 30 minutes. Test compounds (5 μL/well) were added to HWB and incubated at 37° C. for 30 minutes. Anti-human CD11b antibody conjugated with APC (BD Biosciences) was added to HWB (5 μL/well) and incubated at 37° C. for additional 30 minutes. HWB was then challenged with human C5a (final 1 nM) for 30 minutes at 37° C. Samples were treated with warm 1× Lyse/Fix buffer (BD Biosciences) to terminate activation and further incubated at 37° C. for 20 minutes to lyse red blood cells. Assay plates were centrifuged at 300×g for 5 minutes, supernatant was aspirated, and cells were washed once with PBS containing 0.5% FBS. Washed cells were resuspended in PBS containing 0.5% FBS and subjected to flow cytometric analysis using an LSRFortessa equipped with a HTS plate loader (BD Biosciences). The granulocyte population was gated for analysis of MF of CD11b staining using FACSDiva version 6.2 (BD Biosciences). Data from 11 compound concentrations (singlicate at each concentration) was normalized as a percentage of control based on the formula:
% of Control=100×(A−B)/(C−B)
where A is MF from wells containing test compound and C5a, B is MF from wells without C5a (background MF from unstimulated samples) and C is MF from wells containing only C5a (maximum MF). Inhibition curves and IC50 values (test compound concentrations which produce 50% inhibition) were determined using the Prism version 5 software (GraphPad). HWB was also stimulated with 11 different concentrations of C5a to construct a responsive curve and to obtain EC50 value (the concentration of C5a that gives half-maximal response) and curve slope using the Prism version 5 software. Kb (nM) was then calculated using the equation described by Leff and Dougal (TIPS 1993 14:110-112).
A general note: In flow cytometry, cells or beads pass a laser one at a time.

Molecules are shown by their SMILES. Numbered stars: 1 amine (or outer) side, 2 acyl side, 3 side chain; on linkers, the order of the positions; unused ones are H or OH. Bridge positions count the residues as written; N and C are the ends. Square brackets hold non-standard residues; d marks the D form. Peptide text beside a SMILES is read from it. * marks the point of attachment. X2 = O=C([C@@H](C[C@H]1CC[C@@H](O)CC1)N[*:1])[*:2]; X1 = CN(CC(=O)O)[C@@H](Cc1ccccc1)C(=O)*; Hyp = O=C(O)[C@@H]1C[C@@H](O)CN1; Orn = NCCC[C@H](N)C(=O)O

With `CC(=O)N[C@@H]1C[C@H]2C(=O)N[C@H](C[C@H]3CC[C@@H](O)CC3)C(=O)N[C@@H](Cc3c[nH]c4ccccc34)C(=O)N[C@@H](CCCNC(=N)N)C(=O)NCCC[C@H](NC(=O)[C@H](Cc3ccccc3)NCC(=O)O)C(=O)N2C1` [Example 9, ((S)-1-(((3R,6S,9S,15S,19R,20aS)-6-((1H-indol-3-yl)methyl)-19-acetamido-9-(3-guanidinopropyl)-3-(((1s,4S)-4-hydroxycyclohexyl)methyl)-1,4,7,10,16-pentaoxoicosahydropyrrolo[1,2-a][1,4,7,10,13]pentaazacyclooctadecin-15-yl)amino)-1-oxo-3-phenylpropan-2-yl)glycine], the Kb in assay [1] is 1 nM; in assay [2], 32.6 nM.
Taken in the same sequence, the figures for `N=C(N)NCCC[C@@H]1NC(=O)[C@H](Cc2c[nH]c3ccccc23)NC(=O)[C@@H](C[C@H]2CC[C@@H](O)CC2)NC(=O)[C@@H]2C[C@@H](O)CN2C(=O)[C@@H](NC(=O)[C@H](Cc2ccccc2)NCC(=O)O)CCCNC1=O` [Example 1, ((S)-1-(((3R,6S,9S,15S,19R,20aS)-6-((1H-indol-3-yl)methyl)-9-(3-guanidinopropyl)-19-hydroxy-3-(((1s,4S)-4-hydroxycyclohexyl)methyl)-1,4,7,10,16-pentaoxoicosahydropyrrolo[1,2-a][1,4,7,10,13]pentaazacyclooctadecin-15-yl)amino)-1-oxo-3-phenylpropan-2-yl)glycine] were 1.6 nM and 13.1 nM.
As for `[2H]c1cc([2H])cc(C[C@H](NCC(=O)O)C(=O)N[C@H]2CCCNC(=O)[C@H](CCCNC(=N)N)NC(=O)[C@H](Cc3c[nH]c4ccccc34)NC(=O)[C@@H](C[C@H]3CC[C@@H](O)CC3)NC(=O)[C@@H]3C[C@@H](O)CN3C2=O)c1` [Example 13, ((S)-1-(((3R,6S,9S,15S,19R,20aS)-6-((1H-indol-3-yl)methyl)-9-(3-guanidinopropyl)-19-hydroxy-3-(((1s,4S)-4-hydroxycyclohexyl)methyl)-1,4,7,10,16-pentaoxoicosahydropyrrolo[1,2-a][1,4,7,10,13]pentaazacyclooctadecin-15-yl)amino)-1-oxo-3-(3,5-dideuterophenyl)propan-2-yl)glycine], the Kb in assay [1] is 1.3 nM.
As to `N=C(N)NCCC[C@@H]1NC(=O)[C@H](Cc2c[nH]c3ccccc23)NC(=O)[C@@H](C[C@H]2CC[C@@H](O)CC2)NC(=O)[C@@H]2C[C@H](NCC(=O)O)CN2C(=O)[C@@H](NC(=O)[C@H](Cc2ccccc2)NCC(=O)O)CCCNC1=O` [Example 12, ((31R,6S,9S,15S,19S,20aS)-6-((1H-indol-3-yl)methyl)-15-((S)-2-((carboxymethyl)amino)-3-phenylpropanamido)-9-(3-guanidinopropyl)-3-(((1s,4S)-4-hydroxycyclohexyl)methyl)-1,4,7,10,16-pentaoxoicosahydropyrrolo[1,2-a][1,4,7,10,13]pentaazacyclooctadecin-19-yl)glycine], the Kb in assay [1] was 1.3 nM; in assay [2], 32.6 nM.
With `CC(=O)N[C@H]1C[C@H]2C(=O)N[C@H](C[C@H]3CC[C@@H](O)CC3)C(=O)N[C@@H](Cc3c[nH]c4ccccc34)C(=O)N[C@@H](CCCNC(=N)N)C(=O)NCCC[C@H](NC(=O)[C@H](Cc3ccccc3)NCC(=O)O)C(=O)N2C1` [Example 10, ((S)-1-(((3R,6S,9S,15S,19S,20aS)-6-((1H-indol-3-yl)methyl)-19-acetamido-9-(3-guanidinopropyl)-3-(((1s,4S)-4-hydroxycyclohexyl)methyl)-1,4,7,10,16-pentaoxoicosahydropyrrolo[1,2-a][1,4,7,10,13]pentaazacyclooctadecin-15-yl)amino)-1-oxo-3-phenylpropan-2-yl)glycine], the Kb was 2.1 nM in assay [1] and 11.7 nM in assay [2].
`COc1ccc2c(C[C@@H]3NC(=O)[C@@H](C[C@H]4CC[C@@H](O)CC4)NC(=O)[C@@H]4C[C@@H](O)CN4C(=O)[C@@H](NC(=O)[C@H](Cc4ccccc4)NCC(=O)O)CCCNC(=O)[C@H](CCCNC(=N)N)NC3=O)c[nH]c2c1` [Example 15, ((S)-1-(((3R,6S,9S,15S,19R,20aS)-9-(3-guanidinopropyl)-19-hydroxy-3-(((1s,4S)-4-hydroxycyclohexyl)methyl)-6-((6-methoxy-1H-indol-3-yl)methyl)-1,4,7,10,16-pentaoxoicosahydropyrrolo[1,2-a][1,4,7,10,13]pentaazacyclooctadecin-15-yl)amino)-1-oxo-3-phenylpropan-2-yl)glycine] showed a Kb in assay [1] of 2.2 nM.
`COc1ccc2[nH]cc(C[C@@H]3NC(=O)[C@@H](C[C@H]4CC[C@@H](O)CC4)NC(=O)[C@@H]4C[C@@H](O)CN4C(=O)[C@@H](NC(=O)[C@H](Cc4ccccc4)NCC(=O)O)CCCNC(=O)[C@H](CCCNC(=N)N)NC3=O)c2c1` [Example 4, ((S)-1-(((3R,6S,9S,15S,19R,20aS)-9-(3-guanidinopropyl)-19-hydroxy-3-(((1s,4S)-4-hydroxycyclohexyl)methyl)-6-((5-methoxy-1H-indol-3-yl)methyl)-1,4,7,10,16-pentaoxoicosahydropyrrolo[1,2-a][1,4,7,10,13]pentaazacyclooctadecin-15-yl)amino)-1-oxo-3-phenylpropan-2-yl)glycine]: the Kb in assay [1] came out at 3 nM; in assay [2], 53.8 nM.
In turn, `N=C(N)NCCC[C@@H]1NC(=O)[C@H](Cc2c[nH]c3ccccc23)NC(=O)[C@@H](C[C@H]2CC[C@@H](O)CC2)NC(=O)[C@@H]2C[C@@H](NCC(=O)O)CN2C(=O)[C@@H](NC(=O)[C@H](Cc2ccccc2)NCC(=O)O)CCCNC1=O` [Example 14, ((31R,6S,9S,15S,19R,20aS)-6-((1H-indol-3-yl)methyl)-15-((S)-2-((carboxymethyl)amino)-3-phenylpropanamido)-9-(3-guanidinopropyl)-3-(((1s,4S)-4-hydroxycyclohexyl)methyl)-1,4,7,10,16-pentaoxoicosahydropyrrolo[1,2-a][1,4,7,10,13]pentaazacyclooctadecin-19-yl)glycine] had a Kb in assay [1] of 1.7 nM.
With `CN(CC(=O)O)[C@@H](Cc1ccccc1)C(=O)N[C@H]1CCCNC(=O)[C@H](CCCNC(=N)N)NC(=O)[C@H](Cc2c[nH]c3ccccc23)NC(=O)[C@@H](C[C@H]2CC[C@@H](O)CC2)NC(=O)[C@@H]2C[C@@H](O)CN2C1=O` [Example 11, N—((S)-1-(((3R,6S,9S,15S,19R,20aS)-6-((1H-indol-3-yl)methyl)-9-(3-guanidinopropyl)-19-hydroxy-3-(((1s,4S)-4-hydroxycyclohexyl)methyl)-1,4,7,10,16-pentaoxoicosahydropyrrolo[1,2-a][1,4,7,10,13]pentaazacyclooctadecin-15-yl)amino)-1-oxo-3-phenylpropan-2-yl)-N-methylglycine] (X1-[Orn][Hyp][X2]WR; lactam 1-C), in assay [1], the Kb worked out at 1.2 nM.
